What was measured:
[1] = test system: broad panel of 26 kinases; details: tested at 200 nM; cited from earlier work
JAK3 = JAK3 (Homo sapiens, UniProt P52333); details: at clinically relevant concentrations; cited from earlier work
Gata1^low mice = details: mouse, in vivo
Procedure: Given the well described effects of inhibition of the TGF-β receptor 1 kinase on myelofibrosis in mouse models, the effects of the P-selectin inhibitor with those obtained with SB431542 are compared. In fact, contrary to inhibition of TGF-β signaling, inhibition of P-selectin has limited side effects and is therefore preferable to TGF-β inhibitors. […] Gata1^low mice are treated at 5-6 months of age (i.e. in the pre-MF stage) and analyzed at 10-12 months, an age when they are expected to have MF.
Gata1^low mice (8 mice per group) are treated with SB431542 according to the following scheme: • Group 1: Vehicle treated (2% v/v DMSO in H2O) (negative control) • Group 2: Mice receive SB431542 (60 μg/kg/day, cat no S4317-5GM, Sigma-Aldrich, St Louis, MO), as described (Spangrude G J et al, Stem Cells 2016; 34:67-82; Zingariello M et al, Blood 2013; […]
5-6 months old mice are treated daily for 5 days (Monday to Friday), then rested for 2 days and then treated again for 5 days. These treatments continue until the mice will reach 10-12 months of age. At that point they are sacrificed and analyzed for signs of progression to MF as described by Spangrude G J et al, Stem Cells 2016; 34:67-82; Zingariello M et al, Blood 2013; 121:3345-63. […]

P-selectin = molecular target: T1, P-selectin (Homo sapiens, UniProt P16109); details: cited from earlier work
T1 sequence (P16109 42-830): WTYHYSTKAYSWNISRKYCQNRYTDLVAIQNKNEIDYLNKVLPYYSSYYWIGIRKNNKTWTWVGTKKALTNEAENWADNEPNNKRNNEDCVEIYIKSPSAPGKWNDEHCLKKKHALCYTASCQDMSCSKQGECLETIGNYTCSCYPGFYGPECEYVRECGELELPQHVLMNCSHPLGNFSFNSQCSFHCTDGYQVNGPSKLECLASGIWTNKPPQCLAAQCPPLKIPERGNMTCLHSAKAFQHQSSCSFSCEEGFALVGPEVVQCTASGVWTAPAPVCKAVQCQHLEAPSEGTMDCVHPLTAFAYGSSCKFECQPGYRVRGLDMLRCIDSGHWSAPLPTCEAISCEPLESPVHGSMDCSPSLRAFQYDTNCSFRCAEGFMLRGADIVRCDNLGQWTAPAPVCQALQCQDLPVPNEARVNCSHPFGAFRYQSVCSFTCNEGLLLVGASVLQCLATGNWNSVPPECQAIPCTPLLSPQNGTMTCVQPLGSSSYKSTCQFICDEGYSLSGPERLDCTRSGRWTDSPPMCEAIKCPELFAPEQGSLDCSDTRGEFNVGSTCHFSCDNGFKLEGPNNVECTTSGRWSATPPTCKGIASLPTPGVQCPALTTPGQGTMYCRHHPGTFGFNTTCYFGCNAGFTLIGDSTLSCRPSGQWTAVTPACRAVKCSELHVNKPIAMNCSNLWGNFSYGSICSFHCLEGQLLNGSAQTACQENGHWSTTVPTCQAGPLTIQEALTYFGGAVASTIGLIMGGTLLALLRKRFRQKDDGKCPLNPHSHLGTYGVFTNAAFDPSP

JAK3, sequence (P52333 whole entry): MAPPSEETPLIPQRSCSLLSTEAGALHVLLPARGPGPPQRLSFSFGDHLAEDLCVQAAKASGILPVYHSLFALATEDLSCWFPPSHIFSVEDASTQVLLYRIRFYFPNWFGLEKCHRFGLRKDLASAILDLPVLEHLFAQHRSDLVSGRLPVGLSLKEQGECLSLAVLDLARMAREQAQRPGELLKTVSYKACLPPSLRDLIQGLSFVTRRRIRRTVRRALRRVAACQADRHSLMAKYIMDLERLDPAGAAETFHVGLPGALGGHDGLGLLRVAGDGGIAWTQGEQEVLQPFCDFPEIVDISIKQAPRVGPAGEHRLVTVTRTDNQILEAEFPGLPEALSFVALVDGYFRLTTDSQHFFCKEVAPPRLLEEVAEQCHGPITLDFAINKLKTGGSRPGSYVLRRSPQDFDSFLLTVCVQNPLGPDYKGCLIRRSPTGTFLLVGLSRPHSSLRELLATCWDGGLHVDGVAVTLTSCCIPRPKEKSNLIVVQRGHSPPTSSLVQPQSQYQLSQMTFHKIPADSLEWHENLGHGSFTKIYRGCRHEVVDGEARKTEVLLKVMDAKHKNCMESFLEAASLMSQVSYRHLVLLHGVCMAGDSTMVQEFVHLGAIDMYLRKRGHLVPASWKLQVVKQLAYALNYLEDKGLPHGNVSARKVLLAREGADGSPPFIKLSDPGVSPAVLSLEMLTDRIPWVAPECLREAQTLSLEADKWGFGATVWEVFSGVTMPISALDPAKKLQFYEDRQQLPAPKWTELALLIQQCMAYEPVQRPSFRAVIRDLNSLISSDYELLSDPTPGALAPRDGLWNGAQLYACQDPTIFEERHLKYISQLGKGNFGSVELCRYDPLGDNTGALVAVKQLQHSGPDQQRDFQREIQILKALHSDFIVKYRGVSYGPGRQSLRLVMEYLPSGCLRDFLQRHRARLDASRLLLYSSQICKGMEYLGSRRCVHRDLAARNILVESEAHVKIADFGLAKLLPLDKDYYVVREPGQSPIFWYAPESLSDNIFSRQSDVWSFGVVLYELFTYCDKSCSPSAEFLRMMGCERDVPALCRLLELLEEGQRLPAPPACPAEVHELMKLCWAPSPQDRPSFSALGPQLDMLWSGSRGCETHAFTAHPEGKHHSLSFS

## N#CC[C@H](C1CCCC1)n1cc(-c2ncnc3[nH]ccc23)cn1 [ruxolitinib, (R)-3-(4-(7H-pyrrolo[2,3-d]pyrimidin-4-yl)-1H-pyrazol-1-yl)-3-cyclopentylpropanenitrile]
[1]
  inhibition: < 30%
JAK3
  inhibition of JAK3: does not inhibit

## NC(=O)c1ccc(-c2nc(-c3ccc4c(c3)OCO4)c(-c3ccccn3)[nH]2)cc1 [SB431542]
Gata1^low mice
  toxicity profile: poor toxicity profile (increased osteosclerosis)

B1: crizanlizumab: humanized monoclonal antibody targeted towards P-selectin, blocks its interaction with PSGL-1 (antibody)
heavy: QVQLVQSGAEVKKPGASVKVSCKVSGYTFTSYDINWVRQAPGKGLEWMGWIYPGDGSIKYNEKFKGRVTMTVDKSTDTAYMELSSLRSEDTAVYYCARRGEYGNYEGAMDYWGQGTLVTVSSASTKGPSVFPLAPCSRSTSESTAALGCLVKDYFPEPVTVSWNSGALTSGVHTFPAVLQSSGLYSLSSVVTVTSSNFGTQTYTCNVDHKPSNTKVDKTVERKCCVECPPCPAPPVAGPSVFLFPPKPKDTLMISRTPEVTCVVVDVSHEDPEVQFNWYVDGMEVHNAKTKPREEQFNSTFRVVSVLTVVHQDWLNGKEYKCAVSNKGLPAPIEKTISKTKGQPREPQVYTLPPSREEMTKNQVSLTCLVKGFYPSDIAVEWESNGQPENNYKTTPPMLDSDGSFFLYSKLTVDKSRWQQGNVFSCSVMHEALHNHYTQKSLSLSPGK
light: DIQMTQSPSSLSASVGDRVTITCKASQSVDYDGHSYMNWYQQKPGKAPKLLIYAASNLESGVPSRFSGSGSGTDFTLTISSLQPEDFATYYCQQSDENPLTFGGGTKVEIKRTVAAPSVFIFPPSDEQLKSGTASVVCLLNNFYPREAKVQWKVDNALQSGNSQESVTEQDSKDSTYSLSSTLTLSKADYEKHKVYACEVTHQGLSSPVTKSFNRGEC
P-selectin
  blocking of P-selectin interaction with PSGL-1: blocks its interaction with P-selectin glycoprotein ligand 1 (PSGL-1)
  dissociation of already formed P-selectin/PSGL-1 complexes: dissociates P-selectin/PSLG-1 complexes that have already formed
